Data from patent US8987249B2, “Substituted 2-Aza-bicyclo[2.2.1]heptane-3-carboxylic acid (benzyl-cyano-methyl)-amides inhibitors of Cathepsin C” (Boehringer Ingelheim International GmbH, priority 2013, dated 2015).

Legend:
[1] = Determination of metabolic stability with human liver microsomes; settings: pooled human liver microsomes; for half-life at 1 μM: human, pH 7.6
[2] = molecular target: recombinant human DPPI (Cathepsin C) (Homo sapiens (Human), UniProt P53634); test: Inhibition of human DPPI (Cathepsin C); format: biochemical; settings: substrate Gly-Arg-AMC
recombinant human DPPI (Cathepsin C), sequence (P53634 231-394): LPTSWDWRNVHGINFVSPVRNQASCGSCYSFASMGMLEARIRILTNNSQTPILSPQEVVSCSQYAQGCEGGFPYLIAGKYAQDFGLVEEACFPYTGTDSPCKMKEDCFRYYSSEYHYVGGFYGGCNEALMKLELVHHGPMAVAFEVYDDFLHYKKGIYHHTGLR
recombinant human DPPI (Cathepsin C), sequence (P53634 395-463): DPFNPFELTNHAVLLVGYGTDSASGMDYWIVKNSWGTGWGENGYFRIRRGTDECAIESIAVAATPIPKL
recombinant human DPPI (Cathepsin C), sequence (P53634 25-134): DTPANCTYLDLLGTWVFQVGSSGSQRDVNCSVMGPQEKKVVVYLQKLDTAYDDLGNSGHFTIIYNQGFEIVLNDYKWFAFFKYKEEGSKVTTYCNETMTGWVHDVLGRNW
Procedure, shortened: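 Recombinant human DPPI in MES buffer pH 6.0 (5 mM DTT, 0.1% BSA); fluorogenic substrate at 50 μM final, 30 min at room temperature, stopped with 1 μM Gly-Phe-DMK. Background-subtracted fluorescence expressed as percent of vehicle control; IC50 derived.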

[3] = molecular target: recombinant human Cathepsin K (Homo sapiens (Human), UniProt P43235); test: Inhibition of human Cathepsin K; format: biochemical; settings: substrate Z-Gly-Pro-Arg-AMC
recombinant human Cathepsin K, sequence (P43235 115-329): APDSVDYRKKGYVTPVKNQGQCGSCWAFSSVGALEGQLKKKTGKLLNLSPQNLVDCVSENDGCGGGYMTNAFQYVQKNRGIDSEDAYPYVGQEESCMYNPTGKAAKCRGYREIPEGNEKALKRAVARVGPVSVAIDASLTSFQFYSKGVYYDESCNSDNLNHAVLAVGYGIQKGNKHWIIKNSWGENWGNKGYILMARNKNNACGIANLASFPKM
Description: Inhibition of Human Cathepsin K
Materials: Microtiterplates (Optiplate-384 F were purchased from PerkinElmer (Prod. No. 6007270). The substrate Z-Gly-Pro-Arg-AMC was from Biomol (Prod.-No. P-142). L-Cysteine (Prod. No. 168149) was from Sigma. Sodium acetate was from Merck (Prod.-No. 6268.0250), EDTA was from Fluka (Prod.-No. 03680). The inhibitor E-64 was purchased from Sigma (Prod.-No. E3132). The recombinant human Cathepsin K proenzyme was purchased from Biomol (Prod. No. SE-367). All other materials were of highest grade commercially available.
The following buffers were used: Activation buffer: 32.5 mM sodium acetate, adjusted to pH 3.5 with HCl; Assay buffer: 150 mM sodium acetate, 4 mM EDTA, 20 mM L-Cysteine, adjusted to pH 5.5 with HCl,
To activate the proenzyme, 5 μl procathepsin K were mixed with 1 ul activation buffer, and incubated at room temperature for 30 min.
5 μL test compound (final concentration 0.1 nM to 100 μM) in aqua bidest (containing 4% DMSO, final DMSO concentration 1%) were mixed with 10 uL of Cathepsin K in assay buffer (final concentration 2 ng/μL) and incubated for 10 min. […] The plates were then incubated at room temperature for 60 min. Then, the reaction was stopped by adding 10 μL of E64 in assay buffer (final concentration 1 μM). The fluorescence in the wells was determined using a Molecular Devices SpectraMax M5 Fluorescence Reader (Ex 360 nm, Em 460 nm).
Each assay microtiter plate contains wells with vehicle controls (1% DMSO in bidest) as reference for non-inhibited enzyme activity (100% Ctl; high values) and wells with inhibitor (E64 in bidest+1% DMSO, final concentration […]) as controls for background fluorescence (0% Ctl; low values). The analysis of the data was performed by calculating the percentage of fluorescence in the presence of test compound in comparison to the fluorescence of the vehicle control after subtracting the background fluorescence: (RFU(sample)−RFU(background))*100/(RFU(control)−RFU(background))
Data from these calculations were used to generate IC50 values for inhibition of Cathepsin K, respectively.

| SMILES | half-life at 1 μM [1] | IC50 [2] | IC50 [3] | In vitro stability in human liver microsome incubations t½ ([1]; 1 μM test compound, 37° C., NADPH) |
| --- | --- | --- | --- | --- |
| N#Cc1ccc2c(c1)[nH]c(=O)c1cc(CC(C#N)NC(=O)[C@H]3N[C@@H]4CC[C@H]3C4)c(F)cc12 (stereo partly shown) [Example 292] | 1.57 h | 0.9 nM |  |  |
| CN(C)CCn1cc(-c2ccc(C[C@@H](C#N)NC(=O)[C@H]3N[C@@H]4CC[C@H]3C4)c(F)c2)ccc1=O [Example 342] | > 2.17 h | 1.3 nM |  |  |
| CC1CN(c2ccc(C[C@@H](C#N)NC(=O)[C@H]3N[C@@H]4CC[C@H]3C4)c(F)c2)C(C)CN1C (stereo partly shown) [Example 196] | > 2.17 h | 15.1 nM |  |  |
| N#C[C@H](Cc1ccc(-c2ccc(=O)[nH]c2)cc1F)NC(=O)[C@H]1N[C@@H]2CC[C@H]1C2 [Example 258] | > 2.17 h | 7.9 nM |  |  |
| COCCN1C(C)CN(c2ccc(C[C@@H](C#N)NC(=O)[C@H]3N[C@@H]4CC[C@H]3C4)c(F)c2)CC1C (stereo partly shown) [Example 191] | 1.52 h | 11.2 nM |  |  |
| CS(=O)(=O)c1ccn(-c2ccc(C[C@@H](C#N)NC(=O)[C@H]3N[C@@H]4CC[C@H]3C4)c(F)c2)c(=O)c1 [Example 266] | > 2.17 h | 43.7 nM |  |  |
| CNC(=O)Cc1ccc2[nH]c(=O)c3cc(CC(C#N)NC(=O)[C@H]4N[C@@H]5CC[C@H]4C5)ccc3c2c1 (stereo partly shown) [Example 306] | > 2.17 h | 7 nM |  |  |
| Cn1ccc(-c2ccc(C[C@@H](C#N)NC(=O)[C@H]3N[C@@H]4CC[C@H]3C4)c(F)c2)cc1=O [Example 255] | > 2.17 h | 10.9 nM |  |  |
| N#CC(Cc1ccc2c(c1)c(=O)[nH]c1ccc(N)cc12)NC(=O)[C@H]1N[C@@H]2CC[C@H]1C2 (stereo partly shown) [Example 314] | > 2.17 h | 14 nM |  |  |
| CN(C)CCCN1C(=O)Cc2ccc(-c3ccc(C[C@@H](C#N)NC(=O)[C@H]4N[C@@H]5CC[C@H]4C5)c(F)c3)cc21 [Example 277] | > 2.17 h | 3 nM |  |  |
| CN1CCN(C(=O)c2ccc(-c3ccc(C[C@@H](C#N)NC(=O)[C@H]4N[C@@H]5CC[C@H]4C5)c(F)c3)o2)CC1 [Example 289] | 1.83 h | 2.5 nM |  |  |
| N#C[C@H](Cc1ccc(N2CCOCC2)cc1F)NC(=O)[C@H]1N[C@@H]2CC[C@H]1C2 [Example 205] | > 2.17 h | 25.9 nM |  |  |
| COCCN1CCN(c2ccc(C[C@@H](C#N)NC(=O)[C@H]3N[C@@H]4CC[C@H]3C4)c(F)c2)CC1C (stereo partly shown) [Example 178] | > 2.17 h | 7.4 nM |  |  |
| CCNC(=O)c1ccc(-c2ccc(C[C@@H](C#N)NC(=O)[C@H]3N[C@@H]4CC[C@H]3C4)c(F)c2)cc1 [Example 184] | > 2.17 h | 8.8 nM |  |  |
| N#CC(Cc1ccc2c(c1)c(=O)[nH]c1c(F)cccc12)NC(=O)[C@H]1N[C@@H]2CC[C@H]1C2 (stereo partly shown) [Example 308] | > 2.17 h | 8.3 nM |  |  |
| N#CC(Cc1ccc2c(c1)c(=O)[nH]c1c(F)cc(C(N)=O)cc12)NC(=O)[C@H]1N[C@@H]2CC[C@H]1C2 (stereo partly shown) [Example 291] | > 2.17 h | 5.9 nM |  |  |
| N#C[C@H](Cc1ccc(-c2cnn(-c3ccccc3)c2)cc1F)NC(=O)[C@H]1N[C@@H]2CC[C@H]1C2 [Example 171] | 1.38 h | 5 nM |  |  |
| CC1(C)OC(=O)c2cc(-c3ccc(C[C@@H](C#N)NC(=O)[C@H]4N[C@@H]5CC[C@H]4C5)c(F)c3)ccc21 [Example 166] | 1.57 h | 3.3 nM |  |  |
| C[C@H]1CN(C)CCN1c1ccc(C[C@@H](C#N)NC(=O)[C@H]2N[C@@H]3CC[C@H]2C3)c(F)c1 [Example 188] | 1.62 h |  |  |  |
| CS(=O)(=O)c1ccc2[nH]c(=O)c3cc(CC(C#N)NC(=O)[C@H]4N[C@@H]5CC[C@H]4C5)ccc3c2c1 (stereo partly shown) [Example 313] | > 2.17 h | 13.6 nM |  |  |

| SMILES | half-life at 1 μM [1] | IC50 [2] | IC50 [3] | In vitro stability in human liver microsome incubations t½ ([1]; 1 μM test compound, 37° C., NADPH) |
| --- | --- | --- | --- | --- |
| CCN1CCN(c2ccc(C[C@@H](C#N)NC(=O)[C@H]3N[C@@H]4CC[C@H]3C4)c(F)c2)CC1 [Example 272] | > 2.17 h | 6.8 nM |  |  |
| CC1CN(C)CCN1c1ccc(C[C@@H](C#N)NC(=O)[C@H]2N[C@@H]3CC[C@H]2C3)c(F)c1 (stereo partly shown) [Example 192] | > 2.17 h |  |  |  |
| CN1CCN(c2ccc(C[C@@H](C#N)NC(=O)[C@H]3N[C@@H]4CC[C@H]3C4)c(F)c2)C(=O)C1 [Example 125] | > 2.17 h | 206 nM |  |  |
| N#C[C@H](Cc1ccc(OCCN2CCNCC2)cc1F)NC(=O)[C@H]1N[C@@H]2CC[C@H]1C2 [Example 189] | > 2.17 h | 10.4 nM |  |  |
| N#CC(Cc1ccc2c(c1)c(=O)[nH]c1c(F)cc(F)cc12)NC(=O)[C@H]1N[C@@H]2CC[C@H]1C2 (stereo partly shown) [Example 310] | > 2.17 h | 9.4 nM |  |  |
| N#Cc1ccc(-c2ccc(C[C@@H](C#N)NC(=O)[C@H]3N[C@@H]4CC[C@H]3C4)c(F)c2)o1 [Example 162] | > 2.17 h | 2 nM |  |  |
| N#Cc1cc(F)c2[nH]c(=O)c3cc(CC(C#N)NC(=O)[C@H]4N[C@@H]5CC[C@H]4C5)ccc3c2c1 (stereo partly shown) [Example 307] | > 2.17 h | 7.2 nM |  |  |
| N#C[C@H](Cc1ccc([C@H]2CCN3CCOC[C@H]3C2)cc1F)NC(=O)[C@H]1N[C@@H]2CC[C@H]1C2 [Example 284] | 0.967 h |  |  |  |
| N#C[C@H](Cc1ccc(-c2cnc3cnccn23)cc1F)NC(=O)[C@H]1N[C@@H]2CC[C@H]1C2 [Example 194] | 1.42 h | 13.3 nM |  |  |
| CNS(=O)(=O)c1ccc(-c2ccc(C[C@@H](C#N)NC(=O)[C@H]3N[C@H]4C[C@@H]3[C@@H]3C[C@@H]34)c(F)c2)cc1 [Example 150] |  | 38.6 nM | 9300 nM |  |
| N#C[C@H](Cc1ccc(-c2ccc(C(=O)O)s2)cc1F)NC(=O)[C@H]1N[C@@H]2CC[C@H]1C2 [Example 115] |  | 37.8 nM | 2300 nM |  |
| CC(=O)c1ccc(-c2ccc(CC(C#N)NC(=O)[C@H]3N[C@@H]4CC[C@H]3C4)c(F)c2)s1 (stereo partly shown) [Example 72] |  | 10.8 nM | 7300 nM |  |
| CCS(=O)(=O)c1ccc(-c2ccc(C[C@@H](C#N)NC(=O)[C@H]3N[C@H]4C[C@@H]3[C@@H]3C[C@@H]34)c(F)c2)cc1 [Example 151] |  | 36.9 nM | 4800 nM |  |
| N#C[C@H](Cc1ccc(-c2ccc(C(N)=O)cc2)cc1F)NC(=O)[C@H]1N[C@H]2C[C@@H]1[C@@H]1C[C@@H]12 [Example 130] |  | 43.5 nM | 10200 nM |  |
| CNS(=O)(=O)c1ccc(-c2ccc(CC(C#N)NC(=O)[C@H]3N[C@@H]4CC[C@H]3C4)c(F)c2)cc1 (stereo partly shown) [Example 51] |  | 7.5 nM | 4900 nM |  |
| N#CC(Cc1ccc2c(c1)[nH]c1ccccc12)NC(=O)[C@H]1N[C@@H]2CC[C@H]1C2 (stereo partly shown) [Example 203] |  | 23.3 nM | 8400 nM |  |
| CCn1cc(-c2ccc(C[C@@H](C#N)NC(=O)[C@H]3N[C@H]4C[C@@H]3[C@@H]3C[C@@H]34)c(F)c2)cn1 [Example 138] |  | 14.5 nM | 6400 nM |  |
| CS(=O)(=O)c1ccc(-c2ccc(C[C@@H](C#N)NC(=O)[C@H]3N[C@H]4C[C@@H]3[C@@H]3C[C@@H]34)c(F)c2)cc1 [Example 141] |  | 36.6 nM | 8800 nM |  |
| CC(C)(C)n1cc(-c2ccc(C[C@@H](C#N)NC(=O)[C@H]3N[C@@H]4CC[C@H]3C4)c(F)c2)cn1 [Example 23] |  | 3.7 nM | 3800 nM |  |
| N#C[C@H](Cc1ccc(N2CCCN3CCCC3C2)cc1F)NC(=O)[C@H]1N[C@@H]2CC[C@H]1C2 (stereo partly shown) [Example 271] |  |  |  | 2.17 h |
